In patent US5763430A, “Method of treating a viral infection by administering a steroid compound” (priority 1995, dated 1998):
Converted amounts (≈) assume the structure as drawn. Read-outs that look alike come from different tables or passages of the source.

Legend:
[1] = tested on: C. albicans; assay: antibiotic activity (MIC); type: cell-based; settings: Candida albicans
Text: (§1) Thus, it is possible to achieve an antimicrobial steroid with or without squalamine-like pharmacological activity.

[2] = tested on: P. aerug; assay: antibiotic activity (MIC); type: cell-based
Text: as §1

[3] = tested on: S. aureus; assay: antibiotic activity (MIC); type: cell-based; settings: Staphylococcus aureus
Text: as §1

[4] = tested on: E. coli; assay: antibiotic activity (MIC); type: cell-based; settings: Escherichia coli
Text: as §1

[5] = tested on: stage 59-60 Xenopus tadpole; assay: Xenopus tadpole assay; settings: in vivo
[6] = tested on: human microvascular cells; assay: inhibition of endothelial cell cord formation in vitro; type: cell-based; for effect on endothelial cord formation: key: +: Inhibition of angiogenesis; -: No inhibition of angiogenesis; Toxic; *: cell rounding @ 10 µg/ml
Text: Endothelial cells have the capacity in vitro to form tubular aggregates resembling capillaries in various early stages of formation. This conversion occurs under relatively specific conditions, in which essential growth factors along with an effective substratum are provided. It has been shown that both the interaction of growth factors with the endothelial cell and its attachment to a substratum activate the NHE. The activation of this exchanger is believed to be required for subsequent morphologic transformation of the endothelial cell into a multicellular tubular structure.
To assess the effect of compounds on the cord-like structures formed by human microvascular cells when plated in the presence of VEGF (Vascular Endothelial Growth Factor) and basic fibroblast growth factor on a collagen matrix, a standard cord formation assay was used.

Compound	MIC ([1]; C. albicans, read-out: MIC) [µg/mL]	MIC ([2]; P. aerug, read-out: MIC) [µg/mL]	MIC ([3]; S. aureus, read-out: MIC) [µg/mL]	MIC ([4]; E. coli, read-out: MIC) [µg/mL]	further results
CC(C)CCC[C@@H](C)[C@H]1CC[C@H]2[C@@H]3CC[C@H]4C[C@@H](NCCCNCCCCN)CC[C@]4(C)[C@H]3CC[C@]12C [Compound 303]	256 (≈ 496 µM)	128 (≈ 248 µM)	8 (≈ 15.5 µM)	128 to 256 (≈ 248 to 496 µM)	
CC(C)CCC[C@@H](C)[C@H]1CC[C@H]2[C@@H]3CC[C@H]4C[C@H](NCCCNCCCCN)CC[C@]4(C)[C@H]3CC[C@]12C [Compound 304]	128 (≈ 248 µM)	128 (≈ 248 µM)	2 to 4 (≈ 3.88 to 7.75 µM)	128 (≈ 248 µM)	
C[C@H](CCC(=O)O)[C@H]1CC[C@H]2[C@@H]3CC[C@H]4C[C@H](NCCCNCCCCN)CC[C@]4(C)[C@H]3CC[C@]12C [Compound 318]	> 256	64 (≈ 127 µM)	128 (≈ 254 µM)	32 (≈ 63.5 µM)	
CC(C)CCC[C@@H](C)[C@H]1CC[C@H]2[C@@H]3CC[C@H]4C[C@H](NCCCNCCCCNCCCN)CC[C@]4(C)[C@H]3CC[C@]12C [Compound 354]	16 to 32 (≈ 27.9 to 55.8 µM)	64 (≈ 112 µM)	8 (≈ 14 µM)	64 to 128 (≈ 112 to 223 µM)	
COC(=O)CC[C@@H](C)[C@H]1CC[C@H]2[C@@H]3[C@H](O)C[C@@H]4C[C@@H](NCCCNCCCCN)CC[C@]4(C)[C@H]3CC[C@]12C [Compound 355]	256 (≈ 480 µM)	> 256	64 (≈ 120 µM)	256 (≈ 480 µM)	
COC(=O)CC[C@@H](C)[C@H]1CC[C@H]2[C@@H]3[C@H](O)C[C@@H]4C[C@H](NCCCNCCCCN)CC[C@]4(C)[C@H]3CC[C@]12C [Compound 356]	64 (≈ 120 µM)	64 (≈ 120 µM)	4 (≈ 7.49 µM)	32 to 64 (≈ 59.9 to 120 µM)	
CC(C)CCC[C@@H](C)[C@H]1CC[C@H]2[C@@H]3[C@H](O)C[C@H]4C[C@H](NCCCNCCCCN)CC[C@]4(C)[C@H]3CC[C@]12C [Compound 370]	2 (≈ 3.76 µM)	64 (≈ 120 µM)	4 (≈ 7.52 µM)	32 (≈ 60.2 µM)	similarity of pharmacologic activity in tadpole assay [5]: pharmacologic activity similar to that seen for FX 3
COC(=O)CC[C@@H](C)[C@H]1CC[C@H]2[C@@H]3[C@H](O)C[C@H]4C[C@@H](NCCCNCCCCN)CC[C@]4(C)[C@H]3CC[C@]12C [Compound 380]	32 (≈ 59.9 µM)	64 (≈ 120 µM)	4 to 8 (≈ 7.49 to 15 µM)	32 (≈ 59.9 µM)	
C[C@H](CCC(=O)O)[C@H]1CC[C@H]2[C@@H]3[C@H](O)C[C@H]4C[C@@H](NCCCNCCCCN)CC[C@]4(C)[C@H]3CC[C@]12C [Compound 381]	128 (≈ 246 µM)	32 (≈ 61.6 µM)	32 (≈ 61.6 µM)	64 (≈ 123 µM)	
C[C@H](CCC(=O)O)[C@H]1CC[C@H]2[C@@H]3[C@H](O)C[C@H]4C[C@H](NCCCNCCCCN)CC[C@]4(C)[C@H]3CC[C@]12C [Compound 382]	32 (≈ 61.6 µM)	32 (≈ 61.6 µM)	16 (≈ 30.8 µM)	64 (≈ 123 µM)	
CC(C)C(O)CC[C@@H](C)[C@H]1CC[C@H]2[C@@H]3[C@H](O)C[C@H]4C[C@H](NCCCNCCCCN)CC[C@]4(C)[C@H]3CC[C@]12C (stereo partly drawn) [Compound 387, 3α-(1,5,10-Triazadecyl) cholestan-7α,24.xi.-diol]	64 (≈ 117 µM)	256 (≈ 467 µM)	16 to 32 (≈ 29.2 to 58.4 µM)	128 (≈ 234 µM)	
CC(C)C(CC[C@@H](C)[C@H]1CC[C@H]2[C@@H]3[C@H](O)C[C@H]4C[C@H](NCCCNCCCCN)CC[C@]4(C)[C@H]3CC[C@]12C)OS(=O)(=O)O (stereo partly drawn) [Compound 388, 3-Episqualamine]	16 (≈ 25.5 µM)	16 (≈ 25.5 µM)	2 to 4 (≈ 3.18 to 6.37 µM)	4 to 8 (≈ 6.37 to 12.7 µM)	
CC(C)CCC[C@@H](C)[C@H]1CC[C@H]2[C@@H]3CC[C@H]4C[C@H](NCCCN5CCCCN=C5N)CC[C@]4(C)[C@H]3CC[C@]12C [Compound 393]	32 (≈ 59.2 µM)	> 256			MIC [3]: 3 µg/mL (≈ 5.55 µM); MIC [4]: > 256 µg/mL
COC(=O)CC[C@@H](C)[C@H]1CC[C@H]2[C@@H]3[C@H](O)C[C@H]4C[C@H](NCCCNCCCCN)CC[C@]4(C)[C@H]3CC[C@]12C [Compound 394]	32 (≈ 59.9 µM)	64 (≈ 120 µM)	4 (≈ 7.49 µM)	64 (≈ 120 µM)	
COC(=O)CC[C@@H](C)[C@H]1CC[C@H]2[C@@H]3[C@H](O)C[C@H]4CC(NCCCNCCCCNCCCN)CC[C@]4(C)[C@H]3CC[C@]12C (stereo partly drawn) [Compound 395]	64 (≈ 108 µM)	64 (≈ 108 µM)	4 (≈ 6.77 µM)	32 (≈ 54.2 µM)	
COC(=O)CC[C@@H](C)[C@H]1CC[C@H]2[C@@H]3[C@H](O)C[C@H]4C[C@@H](NCCCNCCCCNCCCN)CC[C@]4(C)[C@H]3CC[C@]12C [Compound 396]	16 (≈ 27.1 µM)	128 (≈ 217 µM)	2 to 4 (≈ 3.38 to 6.77 µM)	64 (≈ 108 µM)	
C[C@H](CCC(=O)O)[C@H]1CC[C@H]2[C@@H]3[C@H](O)C[C@H]4C[C@@H](NCCCNCCCCNCCCN)CC[C@]4(C)[C@H]3CC[C@]12C [Compound 397]	32 (≈ 55.5 µM)	16 (≈ 27.7 µM)	16 (≈ 27.7 µM)	32 to 64 (≈ 55.5 to 111 µM)	
COC(=O)CC[C@@H](C)[C@H]1CC[C@H]2[C@@H]3[C@H](O)C[C@@H]4C[C@@H](NCCCNCCCCNCCCN)CC[C@]4(C)[C@H]3CC[C@]12C [Compound 411]	2 (≈ 3.38 µM)	64 (≈ 108 µM)	8 (≈ 13.5 µM)	64 (≈ 108 µM)	effect on endothelial cord formation ([6]; 0.1 μg/ml): -; effect on endothelial cord formation ([6]; 1.0 μg/ml): -; effect on endothelial cord formation ([6]; 10.0 μg/ml): +; minimal effective concentration ([6]; Homo sapiens, Endothelial cell, Table II, read-out: Minimum Effective Concentration, Cord Formation): 10 µg/mL
C[C@H](CCC(=O)O)[C@H]1CC[C@H]2[C@@H]3CC[C@@H]4C[C@H](NCCN)CC[C@]4(C)[C@H]3C[C@H](O)[C@]12C [Compound 417]	32 (≈ 73.6 µM)	128 (≈ 294 µM)	16 to 32 (≈ 36.8 to 73.6 µM)	64 (≈ 147 µM)	
COC(=O)CC[C@@H](C)[C@H]1CC[C@H]2[C@@H]3CC[C@@H]4C[C@H](NCCCNCCCCNCCCN)CC[C@]4(C)[C@H]3C[C@H](O)[C@]12C [Compound 448]	8 (≈ 13.5 µM)	8 (≈ 13.5 µM)	2 (≈ 3.38 µM)	16 (≈ 27.1 µM)	
C[C@H](CCC(=O)O)[C@H]1CC[C@H]2[C@@H]3CC[C@@H]4C[C@H](NCCCNCCCCNCCCN)CC[C@]4(C)[C@H]3C[C@H](O)[C@]12C [Compound 449]	4 (≈ 6.93 µM)	4 (≈ 6.93 µM)	4 (≈ 6.93 µM)	8 to 16 (≈ 13.9 to 27.7 µM)	effect on endothelial cord formation ([6]; 1.0 μg/ml): -
C[C@H](CCC(=O)O)[C@H]1CC[C@H]2[C@@H]3C[C@@H](O)[C@H]4C[C@@H](NCCCNCCCCNCCCN)CC[C@]4(C)[C@H]3CC[C@]12C [Compound 467]	4 (≈ 6.93 µM)	8 (≈ 13.9 µM)	16 (≈ 27.7 µM)	16 (≈ 27.7 µM)	effect on endothelial cord formation ([6]; 1.0 μg/ml): -; effect on endothelial cord formation ([6]; 10.0 μg/ml): -
C=C(C)C(=O)CC[C@@H](C)[C@H]1CC[C@H]2[C@@H]3[C@H](O)C[C@H]4C[C@@H](NCCCNCCCCN)CC[C@]4(C)[C@H]3CC[C@]12C [Compound 1361]	4 (≈ 7.35 µM)	128 (≈ 235 µM)	4 (≈ 7.35 µM)	32 (≈ 58.8 µM)	
CC(C)CCC[C@@H](C)[C@H]1CC[C@H]2[C@@H]3[C@H](O)C[C@H]4C[C@@H](N)CC[C@]4(C)[C@H]3CC[C@]12C [Compound 1364]	2 (≈ 4.95 µM)	> 256	2 (≈ 4.95 µM)	> 256	
CO[C@@H]1[C@H](OC(=O)/C=C/C=C/C=C/C=C/C(=O)O)CC[C@]2(CO2)[C@H]1[C@@]1(C)O[C@@H]1CC=C(C)C [Fumagillin, reference compound]					effect on endothelial cord formation ([6]; 0.1 μg/ml): -; effect on endothelial cord formation ([6]; 10.0 μg/ml): +
CC(C)C(O)CC[C@@H](C)[C@H]1CC[C@H]2[C@@H]3[C@H](O)C[C@H]4C[C@@H](NCCCNCCCCN)CC[C@]4(C)[C@H]3CC[C@]12C (stereo partly drawn) [MSI-1232]	64 (≈ 117 µM)	128 (≈ 234 µM)	4 to 16 (≈ 7.3 to 29.2 µM)	32 (≈ 58.4 µM)	
CC(C)C(O)CC[C@@H](C)[C@H]1CC[C@H]2[C@@H]3[C@H](O)C[C@H]4C[C@@H](NCCCNCCCCN(C)C)CC[C@]4(C)[C@H]3CC[C@]12C (stereo partly drawn) [MSI-1239A]			8 to 16 (≈ 13.9 to 27.8 µM)	64 (≈ 111 µM)	MIC [1]: 64 µg/mL (≈ 111 µM); MIC [2]: 128 µg/mL (≈ 222 µM)
